Assay results as given in patent publication US20240368174A1, “Antiviral Heterocyclic Compounds” (Enanta Pharmaceuticals, Inc., priority 2023, published 2024).

System: HMPV clinical isolate A2 strain TN 94-49
Assay: HMPV antiviral assay, Method 2 (LLC-MK2 cells with CP-100-356, ATP-Lite)
Assay type: cell-based
Details: human metapneumovirus, 168 h; hMPV A2 TN/94-49, LLC-MK2 cells with 4 μM CP-100-356, 7 days, ATP-Lite
In short: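 EC50 comes from a four-parameter fit of percent cell viability (ATP-Lite, normalized to virus-only and cell-only wells) after 7 days at 37 °C. Infection used HMPV A2 TN 94-49 at MOI 0.16 in LLC-MK2 cells, with 2 μM P-gp inhibitor CP-100-356 and 2 μg/mL TPCK-trypsin final; dose range 200 nM top, 2.5-fold, 10 points, duplicate.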

SMILES | EC50 [nM]
COc1nccc(-c2nc([C@@](O)(CNC(=O)c3cc(OC)c4nc(C5CC5)cn4c3)C(C)C)cc3c2OC[C@]3(C)C(N)=O)c1Cl [Example 891] | > 200
COc1nccc(-c2nc([C@@](O)(CNC(=O)c3cc(OC4CC4)c4nn(C5CC5)cc4c3)C(C)C)cc3c2OC[C@]3(C)C(N)=O)c1Cl [Example 893] | < 200
COc1cc(C(=O)NC[C@](O)(c2cc3c(c(-c4ccnc(C5CCOCC5)c4Cl)n2)OC[C@]3(C)C(N)=O)C2CC2)cc2cn(C(F)F)nc12 [Example 904] | > 200
COc1cc(C(=O)NC[C@](O)(c2cc3c(c(-c4c(C)cncc4F)n2)OC[C@]3(C)C(N)=O)C2CC2)cc2cn(C3CC3)nc12 [Example 725] | < 200
COc1cc(C(=O)NC[C@](O)(c2cc3c(c(-c4ccnc(C(F)(F)F)c4F)n2)OC[C@]3(C)C(N)=O)C2CC2)cc2cn(C(F)F)nc12 [Example 799] | < 200
COc1nccc(-c2nc([C@@](O)(CNC(=O)c3cc(OC)c4nn(C5(F)CC5)cc4c3)c3ccc(F)cc3)cc3c2OC[C@]3(C)C(N)=O)c1Cl [Example 697] | < 200
COc1cc(C(=O)NC[C@](O)(c2cc3c(c(-n4ncc5c4CCCC5)n2)OC[C@]3(C)C(N)=O)C2CC2)cc2cn(C3CC3)nc12 [Example 642] | > 200
COc1cc(C(=O)NC[C@](O)(c2cc3c(c(-c4cc(C(F)(F)F)ncc4F)n2)OC[C@]3(C)C(N)=O)C2(F)CC2)cn2cc(C3CC3)nc12 [Example 668] | < 200
COc1cc(C(=O)NC[C@](O)(c2cc3c(c(-c4ccnc(C(C)C)c4Cl)n2)OC[C@]3(C)C(N)=O)C2CC2)cc2cn(C3(F)CC3)nc12 [Example 908] | > 200
COc1cc(C(=O)NC[C@@](O)(c2ccccc2)c2cc3c(c(-c4ccnc(C)c4Cl)n2)OC[C@]3(C)C(N)=O)cc2cn(C3(F)CC3)nc12 [Example 693] | < 200
COc1cc(C(=O)NC[C@](O)(c2cc3c(c(-n4ncc5c(F)cccc54)n2)OC[C@]3(C)C(N)=O)C2CC2)cc2cc(Cl)c(C)nc12 [Example 899] | > 200
COc1cc(C(=O)NC[C@](O)(c2cc3c(c(-c4ccnc(C(F)(F)F)c4Cl)n2)OC[C@]3(C)C(N)=O)C(F)(F)F)cc2cn(C(F)F)nc12 [Example 790] | < 200
COc1cc(C(=O)NC[C@](O)(c2cc3c(c(-c4c(F)cncc4Cl)n2)OC[C@]3(C)C(N)=O)C2CC2)cc2cn(C3CC3)nc12 [Example 724] | < 200
COc1cc(C(=O)NC[C@](O)(c2cc3c(c(-c4ccnc(C)c4Cl)n2)OC[C@]3(C)C(N)=O)C2CC2)cc2cn(C3CC3)nc12 [Example 871] | < 200

Same assay, conditions: human metapneumovirus; hMPV A2 TN/94-49, LLC-MK2 cells with CP-100-356, Method 2

SMILES | EC50 [nM]
COc1cc(C(=O)NC[C@](O)(c2cc3c(c(-c4ccnc5[nH]ccc45)n2)OC[C@]3(C)C(N)=O)C2CC2)cc2cn(C3CC3)nc12 [Example 429] | > 200
COc1cc(C(=O)NC[C@](O)(c2cc3c(c(-c4cc(Cl)c(F)cc4F)n2)OC[C@]3(C)C(N)=O)c2nccn2C)cc2cn(C3CC3)nc12 [Example 464] | > 200
COc1cc(C(=O)NC[C@@](O)(c2ccc(F)cc2)c2cc3c(c(-c4ccnc(C(F)(F)F)c4F)n2)OC[C@]3(C)C(N)=O)cc2cn(C3(F)CC3)nc12 [Example 573] | < 200
COc1cc(C(=O)NC[C@@](O)(c2cc[nH]c(=O)c2)c2cc3c(c(-c4cc(Cl)c(F)cc4F)n2)OC[C@]3(C)C(N)=O)cc2cn(C3CC3)nc12 [Example 504] | > 200
COc1cc(C(=O)NCC(O)(c2cc3c(c(-c4cc(C(F)(F)F)ncc4Cl)n2)OC[C@]3(C)C(N)=O)C2CC2)cc2cn(C3CC3)nc12 (stereo partly shown) [Example 418] | > 200
COc1cc(C(=O)NC[C@](O)(c2cc3c(c(-c4c(F)cncc4Cl)n2)OC[C@]3(C)C(N)=O)C2CC2)cc2cn(C3CC3)nc12 [Example 434] | < 200
COc1nccc(-c2nc([C@@](O)(CNC(=O)c3cc(OC)c4nc(C5CC5)oc4c3)c3cccc(F)c3)cc3c2OC[C@]3(C)C(N)=O)c1Cl [Example 560] | < 200
C[C@]1(C(N)=O)COc2c1cc([C@@](O)(CNC(=O)c1cc(OC3CC3)n3nc(C4CC4)cc3c1)C1CC1)nc2-c1cc(C(F)(F)F)c(F)cc1F [Example 328] | < 200
COc1cc(F)c(F)cc1-c1nc([C@@](O)(CNC(=O)c2cc(OC)c3nn(C4(F)CC4)cc3c2)c2ccccc2)cc2c1OC[C@]2(C)C(N)=O [Example 365] | < 200
C[C@]1(C(N)=O)COc2c1cc([C@@](O)(CNC(=O)c1cc(OC3CC3)n3nc(C4CC4)cc3c1)c1ccccc1)nc2-c1cc(Cl)c(F)cc1F [Example 191] | < 200
COc1c(F)ccc(-c2nc([C@@](O)(CNC(=O)c3cc(OC)c4nn(C5(F)CC5)cc4c3)c3ccccc3)cc3c2OC[C@]3(C)C(N)=O)c1Cl [Example 375] | < 200
COc1cc(C(=O)NC[C@](O)(c2cc3c(c(-c4cc(C(F)(F)F)c(F)cc4F)n2)OC[C@]3(C)C(N)=O)C2CC2)cc2cc(Cl)cnc12 [Example 316] | < 200
COc1nccc(-c2nc([C@@](O)(CNC(=O)c3cc(OC)c4nn(C5(F)CC5)cc4c3)c3ccccc3)cc3c2OC[C@]3(C)C(N)=O)c1Cl [Example 555] | < 200
COc1nccc(-c2nc([C@@](O)(CNC(=O)c3cc(OC)c4nc(C)sc4c3)C(F)(F)F)cc3c2OC[C@]3(C)C(N)=O)c1Cl [Example 546] | < 200
COc1cc(C(=O)NC[C@](O)(c2cccc(F)c2)c2cc3c(c(-c4cc(Cl)ncc4F)n2)OC[C@]3(C)C(N)=O)cc2cn(C3CC3)nc12 [Example 411] | > 200
COc1cc(C(=O)NC[C@](O)(c2cc3c(c(-c4ccnc(C)c4Cl)n2)OC[C@]3(C)C(N)=O)C2(F)CC2)cc2sc(C)nc12 [Example 530] | > 200
COc1cc(C(=O)NC[C@@](O)(c2ccccc2)c2cc3c(c(-c4ccnc(C(F)F)c4Cl)n2)OC[C@]3(C)C(N)=O)cc2cn(C3CC3)nc12 [Example 562] | < 200
COc1cc(C(=O)NC[C@@](O)(c2cccc(F)n2)c2cc3c(c(-c4ccc(F)c(Cl)c4Cl)n2)OC[C@]3(C)C(N)=O)cc2cn(C3CC3)nc12 [Example 340] | < 200
COc1cc(C(=O)NC[C@@](O)(c2ccccc2)c2cc3c(c(-c4cccc(Cl)c4Cl)n2)OC[C@]3(C)C(N)=O)cc2oc(C)nc12 [Example 95] | < 200
COc1cc(C(=O)NCC(O)(c2ccc(F)cn2)c2cc3c(c(-c4cc(Cl)c(F)cc4F)n2)OC[C@]3(C)C(N)=O)cc2cn(C3CC3)nc12 (stereo partly shown) [Example 210] | < 200

More lines, now with the values ahead:

EC50 [nM] | SMILES
< 200 | COc1cc(C(=O)NC[C@](O)(c2cc3c(c(-c4ccnc(C(F)(F)F)c4Cl)n2)OC[C@]3(C)C(N)=O)C2CC2)cn2cc(C3CC3)nc12 [Example 580]
< 200 | COc1cc(C(=O)NC[C@@](O)(c2ccc(F)cc2)c2cc3c(c(-c4ccnc(C(F)F)c4Cl)n2)OC[C@]3(C)C(N)=O)cc2cn(C3(F)CC3)nc12 [Example 570]
< 200 | COc1cc(C(=O)NC[C@](O)(c2cc3c(c(-c4ccnc(Cl)c4Cl)n2)OC[C@]3(C)C(N)=O)C2(F)CC2)cc2cn(C3(F)CC3)nc12 [Example 519]
< 200 | C[C@]1(C(N)=O)COc2c1cc([C@@](O)(CNC(=O)c1cc(OC3CC3)c3ncc(Cl)cc3c1)c1ccccc1)nc2-c1ccc(F)c(Cl)c1Cl [Example 313]
< 200 | COc1cccc([C@](O)(CNC(=O)c2cc(OC)c3nn(C4CC4)cc3c2)c2cc3c(c(-c4cccc(Cl)c4Cl)n2)OC[C@]3(C)C(N)=O)n1 [Example 496]
< 200 | C[C@]1(C(N)=O)COc2c1cc([C@@](O)(CNC(=O)c1cc(OC(F)F)c3nc(C4CC4)oc3c1)c1ccccc1)nc2-c1cc(Cl)c(F)cc1F [Example 216]
< 200 | COc1cc(C(=O)NC[C@](O)(c2cc3c(c(-c4ccnc(C(F)(F)F)c4Cl)n2)OC[C@]3(C)C(N)=O)C(F)(F)F)cc2cc(C3CC3)nn12 [Example 596]
< 200 | COc1cc(C(=O)NC[C@@](O)(c2ccccc2)c2cc3c(c(-c4ccnc(F)c4Cl)n2)OC[C@]3(C)C(N)=O)cc2cn(C(F)F)nc12 [Example 358]
< 200 | COc1cc(C(=O)NC[C@@](O)(c2cccc(F)c2)c2cc3c(c(-c4ccc5c(c4Cl)OC(F)(F)O5)n2)OC[C@]3(C)C(N)=O)cc2oc(C)nc12 [Example 285]
< 200 | COc1cc(C(=O)NCC(O)(c2cc(F)nc(F)c2)c2cc3c(c(-c4cccc(Cl)c4Cl)n2)OC[C@]3(C)C(N)=O)cc2cn(C(F)F)nc12 (stereo partly shown) [Example 500]
< 200 | COc1cc(C(=O)NC[C@](O)(c2cc3c(c(-n4ccc5cnccc54)n2)OC[C@]3(C)C(N)=O)C2CC2)cc2cn(C3CC3)nc12 [Example 447]
< 200 | COc1cc(C(=O)NC[C@](O)(c2cc3c(c(-c4ccnc(F)c4Cl)n2)OC[C@]3(C)C(N)=O)C2CC2)cc2cn(C3(F)CC3)nc12 [Example 209]
< 200 | Cc1cc(C(=O)NC[C@@](O)(c2ccccc2)c2cc3c(c(-c4cc(Cl)c(F)cc4F)n2)OC[C@]3(C)C(N)=O)cc2cn[nH]c12 [Example 118]
< 200 | COc1cc(C(=O)NC[C@@](O)(c2ccccc2)c2cc3c(c(-c4cccc(Cl)c4Cl)n2)OC[C@]3(C)C(N)=O)cc2oc(C3CC3)nc12 [Example 96]
< 200 | C[C@]1(C(N)=O)COc2c1cc([C@@](O)(CNC(=O)c1cc(Cl)c3nc(C4CC4)oc3c1)c1ccccc1)nc2-c1cc(Cl)c(F)cc1F [Example 232]
< 200 | COc1cc(C(=O)NC[C@@](O)(c2ccccc2)c2cc3c(c(-c4cc(F)c(F)cc4F)n2)OC[C@]3(C)C(N)=O)cc2oc(C)nc12 [Example 193]
< 200 | COc1cc(C(=O)NC[C@](O)(c2cc3c(c(-c4cc(C(F)F)c(F)cc4F)n2)OC[C@]3(C)C(N)=O)C(F)(F)F)cc2cn(C3CC3)nc12 [Example 396]
< 200 | COc1cc(C(=O)NC[C@](O)(c2cc3c(c(-c4cc(C5CC5)ncc4F)n2)OC[C@]3(C)C(N)=O)C2CC2)cc2cn(C3CC3)nc12 [Example 432]
